Results published in PMC6337391 (Molecules, 2019).
Read-outs that look alike come from different tables or passages of the source.

How the values were obtained:
soybean lipoxygenase = target: T1, soybean lipoxygenase (Glycine max, UniProt P08170); experiment: biochemical; format: biochemical
T1 sequence (P08170 1-839): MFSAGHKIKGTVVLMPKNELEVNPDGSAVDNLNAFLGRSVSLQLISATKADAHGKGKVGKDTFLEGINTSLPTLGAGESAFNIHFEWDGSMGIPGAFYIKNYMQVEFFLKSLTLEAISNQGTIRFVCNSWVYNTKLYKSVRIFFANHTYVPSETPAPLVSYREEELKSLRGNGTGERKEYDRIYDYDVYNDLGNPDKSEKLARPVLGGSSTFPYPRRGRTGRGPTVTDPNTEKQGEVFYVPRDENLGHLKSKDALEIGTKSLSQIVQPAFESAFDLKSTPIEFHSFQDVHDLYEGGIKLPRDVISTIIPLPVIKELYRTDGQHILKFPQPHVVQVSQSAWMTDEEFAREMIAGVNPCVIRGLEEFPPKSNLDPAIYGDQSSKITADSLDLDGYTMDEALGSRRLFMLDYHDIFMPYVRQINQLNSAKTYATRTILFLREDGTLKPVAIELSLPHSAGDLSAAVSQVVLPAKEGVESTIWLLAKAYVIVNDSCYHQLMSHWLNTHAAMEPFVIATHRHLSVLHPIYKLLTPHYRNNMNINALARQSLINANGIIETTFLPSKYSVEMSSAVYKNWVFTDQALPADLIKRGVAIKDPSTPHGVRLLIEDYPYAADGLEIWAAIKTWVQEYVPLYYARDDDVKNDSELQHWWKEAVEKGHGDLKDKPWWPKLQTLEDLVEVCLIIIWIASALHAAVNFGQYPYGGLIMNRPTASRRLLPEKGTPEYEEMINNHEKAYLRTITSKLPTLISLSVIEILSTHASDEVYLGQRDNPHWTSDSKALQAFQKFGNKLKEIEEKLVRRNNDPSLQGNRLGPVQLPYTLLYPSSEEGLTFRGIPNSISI
Outline: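 Soybean LOX (enzyme solution 1/9 × 10^−4 w/v in saline) incubated at room temperature with sodium linoleate ([…]) in tris buffer pH 9. Compounds added from DMSO stocks. IC50 derived from several concentrations.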

human h-15-LOX-1 = target: T2, human h-15-LOX-1 (Homo sapiens, UniProt P16050); experiment: Human h-15-LOX-1 screening UV assay; format: biochemical; details: for h-15-LOX-1 inhibitory potency ranking at 50 µM (in words): 10 min pre-incubation
T2 sequence (P16050 1-662): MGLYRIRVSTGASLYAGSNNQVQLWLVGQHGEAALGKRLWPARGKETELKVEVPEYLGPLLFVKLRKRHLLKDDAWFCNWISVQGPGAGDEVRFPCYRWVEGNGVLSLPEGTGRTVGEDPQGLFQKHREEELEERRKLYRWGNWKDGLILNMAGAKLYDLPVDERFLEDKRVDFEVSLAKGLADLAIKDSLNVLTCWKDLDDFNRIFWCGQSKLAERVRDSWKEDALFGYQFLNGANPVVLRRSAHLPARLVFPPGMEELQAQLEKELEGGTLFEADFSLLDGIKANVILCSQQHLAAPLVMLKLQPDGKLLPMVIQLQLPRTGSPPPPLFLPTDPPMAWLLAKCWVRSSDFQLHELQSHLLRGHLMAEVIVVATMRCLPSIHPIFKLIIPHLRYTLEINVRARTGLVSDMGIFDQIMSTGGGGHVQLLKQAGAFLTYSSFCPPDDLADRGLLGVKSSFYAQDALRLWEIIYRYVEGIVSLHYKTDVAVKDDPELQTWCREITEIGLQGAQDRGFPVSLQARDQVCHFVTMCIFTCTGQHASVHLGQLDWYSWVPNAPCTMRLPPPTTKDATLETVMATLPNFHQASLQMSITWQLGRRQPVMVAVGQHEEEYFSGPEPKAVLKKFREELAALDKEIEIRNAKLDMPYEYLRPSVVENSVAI
Procedure: The residual enzyme activity was measured after 10 min pre-incubation with the tested compounds at room temperature. […] Compound c11 follows.
The assay buffer consists of HEPES titrated to pH 7.5 using a concentrated aqueous solution of NaOH. Linoleic acid (LA) was used as a substrate. The linear absorbance increase in absence of the inhibitor was set as 100%, whereas the absorbance increase in absence of the enzyme was set to 0%. All experiments were performed in triplicate and the average triplicate values and their standard deviations are plotted. The vertical axis describes the residual enzyme activity percent % of the human h-15-LOX-1, whereas the horizontal axis describes the concentration of 50 µM of the compounds. The half maximal inhibitor concentration (IC50) of the inhibitors for h-15-LOX-1 was determined using the same assay (Figure 6 and Figure 7).

[1] = Reducing activity with the stable radical DPPH
Outline: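 DPPH (final 0.05 mM) in absolute ethanol mixed with an equal volume of compound at 0.05 or 0.1 mM, ethanol as control. Absorbance at 517 nm read at room temperature after 20 and 60 min, expressed as reducing activity RA%.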

Structure (SMILES): O=C(/C=C/c1cccc2ccccc12)c1ccccc1O [b4, (E)-1-(2-hydroxyphenyl)-3-(naphthalen-1-yl) prop-2-en-1-one]
- % LOX Inhb. @ 100 μM (soybean lipoxygenase; soybean LOX): 82%
- IC50 (soybean lipoxygenase; soybean LOX, read-out: LOX IC50): 65 µM
- h-15-LOX-1 inhibitory potency ranking at 50 µM (in words) (human h-15-LOX-1): highest activity within the group
- IC50 (human h-15-LOX-1; read-out: h-15-LOX-1 Inhb. IC50): 9.5 µM
- RA% 100 μM 20 min [1]: 30%
- RA% 100 μM 60 min [1]: 20%

Structure (SMILES): O=C(/C=C/C=C/c1ccc([N+](=O)[O-])cc1)c1ccc(OCCCOc2ccc(C(=O)/C=C/C=C/c3ccc([N+](=O)[O-])cc3)cc2)cc1 [c11, (2E,2′E,4E,4′E)-1,1′-((propane-1,3-diylbis(oxy))bis(4,1-phenylene))bis(5-(4-nitrophenyl)penta-2,4-dien-1-one)]
- IC50 (soybean lipoxygenase): 50 µM
- % LOX Inhb. @ 100 μM (soybean lipoxygenase; soybean LOX): 95%
- h-15-LOX-1 inhibitory potency ranking at 50 µM (in words) (human h-15-LOX-1): (2nd potent at 50 μM)
- RA% 100 μM 20 min [1]: No
- RA% 100 μM 60 min [1]: no

Structure (SMILES): CC(=O)c1ccc(OCCOc2ccc(C(C)=O)cc2)cc1 [di, 1,1′-((ethane-1,2-diylbis(oxy))bis(4,1-phenylene))diethanone]
- % LOX Inhb. @ 100 μM (soybean lipoxygenase; soybean LOX): 12%

Structure (SMILES): CC(=O)c1ccc(OCCCCCCCOc2ccc(C(C)=O)cc2)cc1 [dvi, 1,1′-((heptane-1,7-diylbis(oxy))bis-(4,1-phenylene)) diethanone]
- % LOX Inhb. @ 100 μM (soybean lipoxygenase; soybean LOX): 17%
